Assay results: BigSolDB 2.1

NC(=O)C[C@H](NC(=O)OCc1ccccc1)C(=O)O
solubility (mole fraction)
Conditions	283.15 K	288.15 K	293.15 K	298.15 K	303.15 K	308.15 K	313.15 K	318.15 K	323.15 K
in 1,4-dioxane	–	0.00212	0.00241	0.00271	0.00317	0.00358	0.00419	0.0049	0.0057
in 2-butanone	0.000329	0.000433	0.000544	0.000652	0.000745	0.00086	0.001	0.00112	0.00128
in acetone	0.000747	0.000777	0.000832	0.000971	0.00112	0.00136	0.00161	0.00194	0.00262
in acetonitrile	7.48e-05	0.000149	0.000221	0.000305	0.000395	0.000498	0.000599	0.00069	0.000775
in ethanol	0.000263	0.000463	0.000753	0.00114	0.00161	0.00213	0.00265	0.00311	0.00347
in isobutanol	4.91e-05	6.83e-05	9.5e-05	0.000157	0.000269	0.000403	0.000581	0.000831	0.00107
in isopropanol	8.58e-05	0.000238	0.000431	0.000625	0.000834	0.00105	0.00127	0.00153	0.00177
in methanol	0.00174	0.00188	0.00233	0.00274	0.00344	0.00413	0.00524	0.00647	0.00801
in n-butanol	0.00023	0.000293	0.000361	0.000476	0.000644	0.000846	0.0011	0.00135	0.00171
in n-pentanol	0.000182	0.000221	0.00027	0.000325	0.000415	0.000535	0.000652	0.000829	0.00104
in n-propanol	0.000285	0.000339	0.000439	0.000576	0.000737	0.000887	0.00116	0.00142	0.00175
in water	2.14e-05	2.75e-05	4.02e-05	5.55e-05	7.33e-05	9.44e-05	0.000121	0.000152	0.000198
